# Assay results published in patent US20260315492A1, “5,6-FUSED BICYCLIC AMIDES AND COMPOSITIONS FOR USE AS 15-PROSTAGLANDIN DEHYDROGENASE MODULATORS” (AMGEN INC., priority 2023, published 2026).
# Target: T1, human recombinant 15-PGDH (Homo sapiens, UniProt P15428)
# T1 sequence (P15428 1-266): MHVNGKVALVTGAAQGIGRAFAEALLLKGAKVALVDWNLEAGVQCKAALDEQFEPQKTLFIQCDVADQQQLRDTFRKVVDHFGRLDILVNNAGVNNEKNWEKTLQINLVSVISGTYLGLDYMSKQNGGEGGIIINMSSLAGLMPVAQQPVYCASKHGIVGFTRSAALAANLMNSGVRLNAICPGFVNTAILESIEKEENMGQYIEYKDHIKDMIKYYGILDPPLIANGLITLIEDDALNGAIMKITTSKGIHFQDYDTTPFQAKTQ
# Assay: Inhibition of recombinant 15-PGDH enzymatic activity (NADH quantification after addition of PGE2 and NAD+)
# Format: biochemical
# Details: recombinant 15-PGDH; 15 min pre-incubation, 60-minute reaction, room temperature, pH 7.5; PGE2 and NAD+; read-out: PGDH-Lumi IC50
# Experimental: The compound dose-response of its inhibition of 15-PGDH activity was determined in human recombinant 15-PGDH enzymatical assays. These assays measured 15-PGDH enzymatic activity by quantifying the amount of NADH produced during a 60-minute reaction initiated by the addition of PGE2 and NAD+. Under the conditions of these experiments, the increase of NADH signal upon oxidation of PGE2 and reduction of NAD+ was linearly proportional to 15-PGDH enzymatic activity. The recombinant human, mouse, rat and dog 15-PGDH enzymatic assays were performed in a 25 μL volume of reaction buffer containing 50 mM Tris, pH 7.5, 0.01% Tween-20 and 100 μM DTT in a 384-well microtiter plate. In concentration-response experiments with tested compounds, 22 concentrations from 2-fold serial dilutions in DMSO were pre-incubated with 15-PGDH for 15 minutes at room temperature. Then, PGE2 and ß-NAD+ were added to initiate the 15-PGDH reaction. After 60 minutes at room temperature, the reaction was quenched and NADH signal was measured using a microtiter plate reader.
# The following data (Table 11-1) provides the IC50 of each compound for inhibiting enzymatic activity of recombinant 15-PGDH in the assay described above.
row,Compound,IC50
1,"Cn1cc2cc(-c3ccc4cc(C(=O)N5CCOCC56CC6)sc4n3)cnc2n1 [Compound B45, (6-(2-methyl-2H-pyrazolo[3,4-b]pyridin-5-yl)thieno[2,3-b]pyridin-2-yl)(7-oxa-4-azaspiro[2.5]octan-4-yl)methanone]",46.1 nM
2,"C[C@@H]1COCCN1C(=O)c1cc2ccc(-c3ccc(=O)[nH]c3)nc2s1 [Compound B48R, 5-(2-(((3R)-3-methyl-4-morpholinyl)carbonyl)thieno[2,3-b]pyridin-6-yl)-2(1H)-pyridinone]",1030 nM
3,"C[C@H]1COCCN1C(=O)c1cc2ccc(-c3ccc(=O)[nH]c3)nc2s1 [Compound B48S, 5-(2-(((3S)-3-methyl-4-morpholinyl)carbonyl)thieno[2,3-b]pyridin-6-yl)-2(1H)-pyridinone]",986 nM
4,"O=C(c1cc2ccc(-c3ccc4ncccc4c3)nc2s1)N1CCOCC1 [Compound B49, 4-morpholinyl(6-(6-quinolinyl)thieno[2,3-b]pyridin-2-yl)methanone]",77.8 nM
5,"Cn1cc2cc(-c3ccc4cc(C(=O)N5CCOCC56COC6)sc4n3)cnc2n1 [Compound B51, 2,8-dioxa-5-azaspiro[3.5]nonan-5-yl(6-(2-methyl-2H-pyrazolo[3,4-b]pyridin-5-yl)thieno[2,3-b]pyridin-2-yl)methanone]",340 nM
6,"Cn1nnc2cc(-c3ccc4cc(C(=O)N5CCOCC5)sc4n3)cnc21 [Compound B54, (6-(3-methyl-3H-[1,2,3]triazolo[4,5-b]pyridin-6-yl)thieno[2,3-b]pyridin-2-yl)(4-morpholinyl)methanone]",16.1 nM
7,"C[C@H]1COCCN1C(=O)c1cc2ccc(-c3ccc4ncccc4c3)nc2s1 [Compound B55S, ((3S)-3-methyl-4-morpholinyl)(6-(6-quinolinyl)thieno[2,3-b]pyridin-2-yl)methanone]",144 nM
8,"C[C@H]1COCCN1C(=O)c1cc2ccc(-c3cnc4nccnc4c3)nc2s1 [Compound B57S, ((3S)-3-methyl-4-morpholinyl)(6-(pyrido[2,3-b]pyrazin-7-yl)thieno[2,3-b]pyridin-2-yl)methanone]",10.3 nM
9,"Cn1cc2cc(-c3ccc4cc(C(=O)N5CCOCC56CCC6)sc4n3)cnc2n1 [Compound B59, (6-(2-methyl-2H-pyrazolo[3,4-b]pyridin-5-yl)thieno[2,3-b]pyridin-2-yl)(8-oxa-5-azaspiro[3.5]nonan-5-yl)methanone]",46.4 nM
10,"C[C@@H]1COCCN1C(=O)c1cc2ccc(-c3cnc4nccnc4c3)nc2s1 [Compound B60R, ((3R)-3-methyl-4-morpholinyl)(6-(pyrido[2,3-b]pyrazin-7-yl)thieno[2,3-b]pyridin-2-yl)methanone]",10.6 nM
11,"C[C@@H]1COCCN1C(=O)c1cc2ccc(-c3ccc4ncccc4c3)nc2s1 [Compound B61R, ((3R)-3-methyl-4-morpholinyl)(6-(6-quinolinyl)thieno[2,3-b]pyridin-2-yl)methanone]",189 nM
12,"C[C@@H]1COCCN1C(=O)c1cc2ccc(-c3cnc4c(=O)n(C)ccc4c3)nc2s1 [Compound B62R, 7-methyl-3-(2-(((3R)-3-methyl-4-morpholinyl)carbonyl)thieno[2,3-b]pyridin-6-yl)-1,7-naphthyridin-8(7H)-one]",4260 nM
13,"C[C@H]1COCCN1C(=O)c1cc2ccc(-c3cnc4c(=O)n(C)ccc4c3)nc2s1 [Compound B62S, 7-methyl-3-(2-(((3S)-3-methyl-4-morpholinyl)carbonyl)thieno[2,3-b]pyridin-6-yl)-1,7-naphthyridin-8(7H)-one]",39.2 nM
14,"Cn1nccc1-c1nc(-c2cnc(=O)[nH]c2)nc2sc(C(=O)N3CCC(F)(F)CC3)cc12 [Compound C38, 5-(6-((4,4-difluoro-1-piperidinyl)carbonyl)-4-(1-methyl-1H-pyrazol-5-yl)thieno[2,3-d]pyrimidin-2-yl)-2(1H)-pyrimidinone]",16 nM
15,"Cn1cc2cc(-c3ccc4sc(C(=O)N5CCOCC5)c(N)c4n3)cnc2n1 [Compound C46, (3-amino-5-(2-methyl-2H-pyrazolo[3,4-b]pyridin-5-yl)thieno[3,2-b]pyridin-2-yl)(4-morpholinyl)methanone]",20.1 nM

# Now those with a lower IC50, led by results:
row,IC50,Compound
1,8.15 nM,"Cn1ccc2cc(-c3ccc4cc(C(=O)N5CCOCC5)sc4n3)cnc2c1=O [Compound B58, 7-methyl-3-(2-(4-morpholinylcarbonyl)thieno[2,3-b]pyridin-6-yl)-1,7-naphthyridin-8(7H)-one]"
2,5.91 nM,"O=C(c1cc2ccc(-c3cnc4nccnc4c3)nc2s1)N1CCOCC1 [Compound B56, 4-morpholinyl(6-(pyrido[2,3-b]pyrazin-7-yl)thieno[2,3-b]pyridin-2-yl)methanone]"
3,5.68 nM,"C[C@H]1COCCN1C(=O)c1cc2ccc(-c3cnc4ncn(C)c4c3)nc2s1 [Compound B63S, (6-(1-methyl-1H-imidazo[4,5-b]pyridin-6-yl)thieno[2,3-b]pyridin-2-yl)((3S)-3-methyl-4-morpholinyl)methanone]"
4,5.17 nM,"C[C@@H]1COCCN1C(=O)c1cc2ccc(-c3cnc4ncn(C)c4c3)nc2s1 [Compound B63R, (6-(1-methyl-1H-imidazo[4,5-b]pyridin-6-yl)thieno[2,3-b]pyridin-2-yl)((3R)-3-methyl-4-morpholinyl)methanone]"
5,4.51 nM,"Cn1cc2cc(-c3ccc4sc(C(=O)N5CCOCC5)cc4n3)cnc2n1 [Compound C44, (5-(2-methyl-2H-pyrazolo[3,4-b]pyridin-5-yl)thieno[3,2-b]pyridin-2-yl)(4-morpholinyl)methanone]"
6,3.53 nM,"Cn1cc2cc(-c3ccc4sc(C(=O)N5CCC(F)(F)CC5)c(N)c4n3)cnc2n1 [Compound C48, (3-amino-5-(2-methyl-2H-pyrazolo[3,4-b]pyridin-5-yl)thieno[3,2-b]pyridin-2-yl)(4,4-difluoro-1-piperidinyl)methanone]"
7,2.64 nM,"Cn1cnc2ncc(-c3ccc4cc(C(=O)N5CCOCC5)sc4n3)cc21 [Compound B50, (6-(1-methyl-1H-imidazo[4,5-b]pyridin-6-yl)thieno[2,3-b]pyridin-2-yl)(4-morpholinyl)methanone]"
8,2.6 nM,"Cn1cc2cc(-c3ccc4cc(C(=O)N5CCOC(C(F)(F)F)C5)sc4n3)cnc2n1 (stereo not drawn) [Compound B46, (6-(2-methyl-2H-pyrazolo[3,4-b]pyridin-5-yl)thieno[2,3-b]pyridin-2-yl)(2-(trifluoromethyl)-4-morpholinyl)methanone]"
9,1.81 nM,"Cn1cc2cc(-c3ccc4cc(C(=O)N5CCOC6CC65)sc4n3)cnc2n1 (stereo not drawn) [Compound B53, (6-(2-methyl-2H-pyrazolo[3,4-b]pyridin-5-yl)thieno[2,3-b]pyridin-2-yl)(2-oxa-5-azabicyclo[4.1.0]heptan-5-yl)methanone]"
10,1.67 nM,"Cn1cc2cc(-c3nc(C4CC4)c4sc(C(=O)N5CCOCC5)cc4n3)cnc2n1 [Compound C49, (4-cyclopropyl-2-(2-methyl-2H-pyrazolo[3,4-b]pyridin-5-yl)thieno[3,2-d]pyrimidin-6-yl)(4-morpholinyl)methanone]"
11,1.63 nM,"Cn1cc2cc(-c3ccc4sc(C(=O)N5CCCC(F)(F)C5)c(N)c4n3)cnc2n1 [Compound C47, (3-amino-5-(2-methyl-2H-pyrazolo[3,4-b]pyridin-5-yl)thieno[3,2-b]pyridin-2-yl)(3,3-difluoro-1-piperidinyl)methanone]"
12,1.38 nM,Cn1cc2cc(-c3cnc4cc(C(=O)N5CCC(F)(F)CC5)sc4n3)cnc2n1 [Compound C39]
13,0.726 nM,"Cn1cc2cc(-c3cnc4sc(C(=O)N5CCC(F)(F)CC5)cc4n3)cnc2n1 [Compound C40, (4,4-difluoro-1-piperidinyl)(2-(2-methyl-2H-pyrazolo[3,4-b]pyridin-5-yl)thieno[2,3-b]pyrazin-6-yl)methanone]"
14,0.712 nM,"Cn1cc2cc(-c3ccc4cc(C(=O)N5CCOC6(CC6)C5)sc4n3)cnc2n1 [Compound B47, (6-(2-methyl-2H-pyrazolo[3,4-b]pyridin-5-yl)thieno[2,3-b]pyridin-2-yl)(4-oxa-7-azaspiro[2.5]octan-7-yl)methanone]"
15,0.679 nM,"Cn1cc2cc(-c3ccc4sc(C(=O)N5CCCCC5)c(N)c4n3)cnc2n1 [Compound C45, (3-amino-5-(2-methyl-2H-pyrazolo[3,4-b]pyridin-5-yl)thieno[3,2-b]pyridin-2-yl)(1-piperidinyl)methanone]"
16,0.429 nM,"Cn1cc2cc(-c3ccc4sc(C(=O)N5CCC(F)(F)CC5)cc4n3)cnc2n1 [Compound C41, (4,4-difluoro-1-piperidinyl)(5-(2-methyl-2H-pyrazolo[3,4-b]pyridin-5-yl)thieno[3,2-b]pyridin-2-yl)methanone]"
17,0.394 nM,"Cn1cc2cc(-c3ccc4sc(C(=O)N5CCCCC5)cc4n3)cnc2n1 [Compound C42, (5-(2-methyl-2H-pyrazolo[3,4-b]pyridin-5-yl)thieno[3,2-b]pyridin-2-yl)(1-piperidinyl)methanone]"
18,0.375 nM,"Cn1cc2cc(-c3ccc4sc(C(=O)N5CCCC(F)(F)C5)cc4n3)cnc2n1 [Compound C43, (3,3-difluoro-1-piperidinyl)(5-(2-methyl-2H-pyrazolo[3,4-b]pyridin-5-yl)thieno[3,2-b]pyridin-2-yl)methanone]"
